Measured values from patent US10918625B2, “Use of sesquiterpene derivative” (KOOKMIN UNIVERSITY INDUSTRY ACADEMY COOPERATION FOUNDATION, priority 2016, dated 2021).
Blank lines part the entries; values can stand above or below the compound they belong to.

What was measured:
Wnt/β-catenin pathway [1] = assay: Wnt/β-catenin pathway inhibitory activity: cytoplasmic β-catenin by western blot in Wnt3a-CM treated HEK293 cells; type: cell-based, human; details: Wnt3a-CM, 15 hours
Method: HEK293 cells (human embryonic kidney cells) and Wnt3a-secreting L cells were obtained from the ATCC (American Type Culture Collection, USA) and were cultured in DMEM (Dulbecco's modified Eagle's medium) supplemented with 10% FBS (fetal bovine serum), 120 μg/mL penicillin and 200 μg/mL streptomycin.
Wnt3a-CM (Wnt3a-conditioned medium) was prepared by culturing Wnt3a-secreting L cells in DMEM supplemented with 10% [v/v] FBS (fetal bovine serum) for 4 days and recovering the DMEM medium and sterilizing by filtering through a 0.22-μm filter. Then, after adding a fresh DMEM (supplemented with 10% [v/v] FBS) medium to the cells and culturing for 3 days, the medium was recovered by the same method and then combined with the previously prepared Wnt3a-CM.
(§1) After treating HEK293 cells with the Wnt3a-CM, the compound of Preparation Example 30 or the compound of Preparation Example 31 (10, 20 or 40 μM) for 15 hours and extracting cytoplasmic proteins from the cells, the amount of β-catenin regulating the CRT (β-catenin response transcription) of the Wnt/β-catenin pathway in the cells was investigated by western blot using a β-catenin antibody (BD Transduction Laboratories, USA) and the ECL system (Santa Cruz Biotechnology).
as §1, with “The Wnt/β-catenin pathway inhibitory activity of the Preparation Example 32 compound was evaluated in the same manner as in Example <1-1>. Briefly, after” for “After”, “Wnt3a-CM” for “Wnt3a-CM, the compound of Preparation Example 30”, “32 (10 or” for “31 (10,”, “20” for “20 or 40”

Wnt/β-catenin pathway [2] = assay: Wnt/β-catenin pathway inhibitory activity: cytoplasmic β-catenin by western blot in Wnt3a-CM treated ARPE-19 cells; type: cell-based; details: ARPE-19 human retinal epithelial cells, Wnt3a-CM, compound 3 or 6 μM, 24 hours
Method: ARPE-19 cells (human retinal epithelial cells) and Wnt3a-secreting L cells were obtained from the ATCC (American Type Culture Collection, USA) and were cultured in DMEM (Dulbecco's modified Eagle's medium) supplemented with 10% FBS, 120 μg/mL penicillin and 200 μg/mL streptomycin. Wnt3a-CM (Wnt3a-conditioned medium) was prepared by culturing Wnt3a-secreting L cells in DMEM supplemented with 10% [v/v] FBS (fetal bovine serum) for 4 days and recovering the DMEM medium and sterilizing by filtering through a 0.22-μm filter. Then, after adding fresh DMEM (supplemented with 10% [v/v] FBS) to the cells and culturing for 3 days, Wnt3a-CM was recovered.
as §1, with “ARPE-19” for “HEK293”, “33” for “30”, “34 (3” for “31 (10, 20”, “6” for “40”, “24” for “15”

[3] = system: macular edema-induced mouse model; assay: Inhibition of vascular leakage in the retina, intraperitoneal administration, laser-induced macular edema mouse model (OCT); type: in vivo, C57BL/6 mouse; details: 1 mg/kg intraperitoneal every day for 7 days, OCT on day 6, vs vehicle
Method: After inducing macular edema in a C57BL/6 mouse and intraperitoneally administering the compound of Preparation Example 33, vascular leakage in the retina was investigated.
Briefly, after anesthetizing an 8-to-12-week-old C57BL/6 mouse with Zoletil (40 mg/kg) and xylazine (5 mg/kg), the pupil was dilated with 1% tropicamide. Hydroxypropylmethyl cellulose was dropped onto the eye and a microscope cover glass was used as a contact lens. Then, 3-5 laser burns were made in the space between the retinal blood vessels around the optic disc (Zeiss 1149-630, laser power 200 mW, duration 0.05 s, spot size 50 μm).
After the laser irradiation, 10 mL/kg of distilled water as a vehicle was intraperitoneally administered to a control group (FIG. 5, A) and 1 mg/kg of the compound of Preparation Example 33 (dissolved distilled water) was intraperitoneally administered to a test group (FIG. 5, B) every day for 7 days. On day 6, 10% sodium fluorescein was intraperitoneally administered and optical coherence tomography was conducted.

C57BL/6J mice = assay: Tissue toxicity, long-term (8 weeks) administration: blood GPT, BUN, liver and kidney sections; type: in vivo, C57BL/6J mouse; details: different doses for 8 weeks
Method: A long-term toxicity test was conducted by administering the compound of Preparation Example 33 at different doses to C57BL/6J mice (10 mice per group) for 8 weeks. In order to investigate the effect on different organs (tissues) of the animals, blood was taken from the animals of the test group to which the compound of Preparation Example 33 was administered and the control group to which only PEG 400:Tween 80:ethanol (8:1:1, v:v:v) was administered 8 weeks later and the level of GPT (glutamate-pyruvate transferase) and BUN (blood urea nitrogen) in the blood was measured using Select E (Vital Scientific NV, Netherlands).

[4] = In vivo PK after oral administration: concentration in blood plasma and eye (LC-MS/MS); parameters: species or system ICR mouse; details: 10 mg/kg oral gavage, plasma and eye at 0.5 hour and 2 hours
Method: Male ICR mice (8 weeks, 30-35 g) were purchased from Samtako Co. (Osan, Korea). The test animals were acclimatized for a week under the following conditions: temperature 23±2° C., relative humidity 55±10%, illumination intensity 150-300 lux, ventilation frequency 15-20 times/h, illumination cycle 12 h (07:00-19:00). All the animal experiments were approved by the Animal Care and Use Committee of Kyungpook National University (Study No. 2016-0043).
The mice were fasted for 12 hours before drug administration. Feed and water were supplied ad libitum. The compound of Preparation Example 33 was dissolved in DW:PEG 400 (=60:40 (v/v)) and administered by oral gavage at a dose of 10 mg/kg.
0.5 hour and 2 hours after the oral administration, blood samples were taken from the abdominal artery. […] of a plasma sample obtained after centrifuging the blood sample at 13,000 rpm for 5 minutes was stored at −80° C. until use for analysis. […]
In order to investigate the distribution of the compound of the present disclosure in the target tissue, the compound was orally administered at a dose of 10 mg/kg and the concentration of the compound in the blood plasma and eye was measured. The sampling times were determined as 0.5 hour and 2 hours based on the peak plasma concentration and the distribution phase. […]

[5] = system: macular edema-induced mouse model; assay: Inhibition of vascular leakage in the eye, intravitreal administration, laser-induced macular edema mouse model (FA and OCT); type: in vivo, C57BL/6 mouse; details: 100 ng/0.5 μL in DMSO intravitreal 24 hours after laser, read one week later, vs DMSO control group
Method: Macular edema was induced in a 10-week-old C57BL/6 mouse by irradiating a laser. After anesthetizing the mouse with ketamine (70 mg/kg) and xylazine (30 mg/kg), the pupil was dilated with 1% tropicamide. Hydroxypropylmethyl cellulose was dropped onto the eye and a microscope cover glass was used as a contact lens. Then, five laser burns were made in the space between the blood vessels around the optic disc (Zeiss 1149-630, laser power 180 mW, duration 0.1 s, spot size 50 μm). In this state, the blood vessel size and permeability were investigated by fluorescein angiography (FA) and optical coherence tomography (OCT). 24 hours after the laser irradiation, 0.5 μL of DMSO (dimethyl sulfoxide) was injected to a control group and 100 ng/0.5 μL of the Preparation Example 33 compound dissolved in DMSO was injected to a test group, into the vitreous cavity of the mouse. One week later, fluorescein angiography and optical coherence tomography were conducted again.

Structure (SMILES): C=C1CCCC2C1(C)CCC(C)C2(C)CC1=C(O)C(=O)C=C(NCCc2ccccc2)C1=O (stereo not drawn) [Preparation Example 32]
level of β-catenin in the cytoplasm (western blot) (Wnt/β-catenin pathway [1]; compound 10 or 20 μM): decreased level of β-catenin

Structure (SMILES): C=C1CCCC2C1(C)CCC(C)C2(C)Cc1c(O)c(OC)cc2nc(C)oc12 [Preparation Example 31, 18-methoxy-22-methyl-16-[{(5S,8S,9R,10S)-5,8,9-trimethyl-4-methylenedecahydronaphthalen-9-yl}methyl]benzo[d]-oxazol-17-ol]
level of β-catenin in the cytoplasm (western blot) (Wnt/β-catenin pathway [1]; compound 10, 20 or 40 μM): decreased level of β-catenin

Structure (SMILES): C=C1CCC[C@@H]2[C@@](C)(CC3=C(O)C(=O)C=C(OCC)C3=O)[C@H](C)CC[C@@]12C [Preparation Example 34, 3-[[(1S,2R,4aR,8aR)-1,2,4a-trimethyl-5-methylidene-3,4,6,7,8,8a-hexahydro-2H-naphthalen-1-yl]methyl]-5-ethoxy-2-hydroxycyclohexa-2,5-diene-1,4-dione]
level of β-catenin in the cytoplasm (western blot) (Wnt/β-catenin pathway [2]): decreased level of β-catenin

Structure (SMILES): C=C1CCCC2C1(C)CCC(C)C2(C)CC1=C2OC(C)(C)N=C2C=C(OC)C1=O [Preparation Example 30, 18-methoxy-22,22-dimethyl-16-[{(5R,8S,9R,10S)-5,8,9-trimethyl-4-methylenedecahydronaphthalen-9-yl}methyl]benzo[d]-oxazol-17(2H)-one]
level of β-catenin in the cytoplasm (western blot) (Wnt/β-catenin pathway [1]; compound 10, 20 or 40 μM): decreased level of β-catenin

distribution in the eye after oral administration [4]: highly targeted in the eye
permeability for the target tissue (eye) [4]: high permeability
Structure (SMILES): C=C1CCC[C@H]2[C@](C)(CC3=C(O)C(=O)C=C(OC)C3=O)[C@@H](C)CC[C@]12C [Preparation Example 33, 3-[[(1R,2S,4aS,8aS)-1,2,4a-trimethyl-5-methylidene-3,4,6,7,8,8a-hexahydro-2H-naphthalen-1-yl]methyl]-2-hydroxy-5-methoxycyclohexa-2,5-diene-1,4-dione]
level of β-catenin in the cytoplasm (western blot) (Wnt/β-catenin pathway [2]): decreased level of β-catenin
vascular leakage (optical coherence tomography) [3]: inhibited vascular leakage
liver and kidney tissue sections under optical microscope (C57BL/6J mice): no special abnormality
BUN (blood urea nitrogen) in the blood, control group vs test group (C57BL/6J mice; related with kidney toxicity): no significant difference
GPT (glutamate-pyruvate transferase) in the blood, control group vs test group (C57BL/6J mice; related with liver toxicity): no significant difference
vascular leakage (fluorescein angiography and optical coherence tomography) [5]: distinctly decreased vascular leakage
